Source: ChEMBL document CHEMBL1149036, “Swertifrancheside, an HIV-reverse transcriptase inhibitor and the first flavone-xanthone dimer, from Swertia franchetiana” (J Nat Prod, 1994)
Values after ≈ are worked out from the molar mass of the structure shown.

Key:
[1] = molecular target: Human immunodeficiency virus type 1 reverse transcriptase (Human immunodeficiency virus 1) (UniProt Q72547); test: Inhibition of HIV1 reverse transcriptase at 200 ug/mL
[2] = molecular target: Human immunodeficiency virus type 1 reverse transcriptase (Human immunodeficiency virus 1) (UniProt Q72547); test: Inhibition of HIV1 reverse transcriptase

| Compound | inhibition [1] [%] | ED50 [2] [µg/mL] |
| --- | --- | --- |
| COc1cc(O)c2c(=O)c3c(O)c(-c4c(O)c([C@@H]5O[C@H](CO)[C@@H](O)[C@H](O)[C@H]5O)c(O)c5c(=O)cc(-c6ccc(O)c(O)c6)oc45)cc(O)c3oc2c1 | 99.8 | 30.9 (≈ 42.9 µM) |
| COc1cc(O)c2c(=O)c3c(O)c(-c4c(O)c([C@@H]5O[C@H](CO)[C@@H](O)[C@H](O)[C@H]5O)c(O)c5c(=O)c6cc(O)c(O)cc6oc45)cc(O)c3oc2c1 | – | 3 (≈ 4.32 µM) |
